Source: ChEMBL document CHEMBL5325509, “Pyrrolidinedione-thiazolidinone hybrid molecules with potent cytotoxic effect in squamous cell carcinoma SCC-15 cells” (Bioorg Med Chem, 2023)
The source made the active and inactive calls. No cut-off for these calls is given here.

Experiments:
Leukemic tumor cell line = assay: Cytotoxicity against human Leukemic tumor cell line assessed as inhibition of cell growth measured at 72 hrs; assay type: functional, cell-based
Breast carcinoma cell = assay: Cytotoxicity against human Breast carcinoma cell assessed as inhibition of cell growth measured at 72 hrs; assay type: functional, cell-based
[1] = Cytotoxicity against human Cervical carcinoma cell assessed as inhibition of cell growth measured at 72 hrs; assay type: functional, cell-based
Colon carcinoma cell = assay: Cytotoxicity against human Colon carcinoma cell assessed as inhibition of cell growth measured at 72 hrs; assay type: functional, cell-based
Lung cancer cell line = assay: Cytotoxicity against human Lung cancer cell line assessed as inhibition of cell growth measured at 72 hrs; assay type: functional, cell-based
Glioblastoma cell line = assay: Cytotoxicity against human Glioblastoma cell line assessed as inhibition of cell growth measured at 72 hrs; assay type: functional, cell-based
SCC-15 [2] = assay: Cytotoxicity against human SCC-15 cells assessed as LDH release incubated for 24 hrs; assay type: functional, cell-based; settings: SCC-15, 24 h
SCC-15 [3] = assay: Cytotoxicity against human SCC-15 cells assessed as LDH release incubated for 48 hrs; assay type: functional, cell-based; settings: SCC-15, 48 h
SCC-15 [4] = assay: Cytotoxicity against human SCC-15 cells assessed as LDH release at 10 uM incubated for 24 hrs relative to control; assay type: functional
SCC-15 [5] = assay: Cytotoxicity against human SCC-15 cells assessed as LDH release at 50 uM incubated for 24 hrs relative to control; assay type: functional
SCC-15 [6] = assay: Cytotoxicity against human SCC-15 cells assessed as LDH release at 100 uM incubated for 24 hrs relative to control; assay type: functional
SCC-15 [7] = assay: Cytotoxicity against human SCC-15 cells assessed as LDH release at 50 uM incubated for 48 hrs relative to control; assay type: functional
SCC-15 [8] = assay: Cytotoxicity against human SCC-15 cells assessed as LDH release at 100 uM incubated for 48 hrs relative to control; assay type: functional
SCC-15 [9] = assay: Cytotoxicity against human SCC-15 cells assessed as decrease in cellular metabolic activity incubated for 24 hrs by resazurin reduction assay; assay type: functional, cell-based; settings: SCC-15, 24 h
SCC-15 [10] = assay: Cytotoxicity against human SCC-15 cells assessed as decrease in cellular metabolic activity incubated for 48 hrs by resazurin reduction assay; assay type: functional, cell-based; settings: SCC-15, 48 h
SCC-15 [11] = assay: Cytotoxicity against human SCC-15 cells assessed as decrease in cellular metabolic activity at 10 uM incubated for 24 hrs by resazurin reduction assay relative to control; assay type: functional; parameters: scale not given: the % may be the effect or the level left
SCC-15 [12] = assay: Cytotoxicity against human SCC-15 cells assessed as decrease in cellular metabolic activity at 50 uM incubated for 24 hrs by resazurin reduction assay relative to control; assay type: functional; parameters: scale not given: the % may be the effect or the level left
SCC-15 [13] = assay: Cytotoxicity against human SCC-15 cells assessed as decrease in cellular metabolic activity at 100 uM incubated for 24 hrs by resazurin reduction assay relative to control; assay type: functional; parameters: scale not given: the % may be the effect or the level left
SCC-15 [14] = assay: Cytotoxicity against human SCC-15 cells assessed as decrease in cellular metabolic activity at 10 uM incubated for 48 hrs by resazurin reduction assay relative to control; assay type: functional; parameters: scale not given: the % may be the effect or the level left
SCC-15 [15] = assay: Cytotoxicity against human SCC-15 cells assessed as decrease in cellular metabolic activity at 50 uM incubated for 48 hrs by resazurin reduction assay relative to control; assay type: functional; parameters: scale not given: the % may be the effect or the level left
SCC-15 [16] = assay: Cytotoxicity against human SCC-15 cells assessed as decrease in cellular metabolic activity at 100 uM incubated for 48 hrs by resazurin reduction assay relative to control; assay type: functional; parameters: scale not given: the % may be the effect or the level left
HaCaT = assay: Cytotoxicity against human HaCaT cells assessed reduction in cellular metabolic activity at 0.1 to 100 uM incubated for 24 to 72 hrs by MTT assay; assay type: toxicity, cell-based; settings: dose lower 0.1 µM, time lower 24 hrs, dose upper 100 µM, time upper 72 hrs
BALB/3T3 = assay: Cytotoxicity against mouse BALB/3T3 cells assessed reduction in cellular metabolic activity at 0.1 to 100 uM incubated for 24 to 72 hrs by MTT assay; assay type: toxicity, cell-based; settings: balb/3t3, 100 µM, dose lower 0.1 µM, time lower 24 hrs, dose upper 100 µM, time upper 72 hrs
[17] = Cytotoxicity against human HaCaT cells assessed reduction in cellular metabolic activity incubated for 24 to 72 hrs by MTT assay; assay type: toxicity, cell-based
[18] = Cytotoxicity against mouse BALB/3T3 cells assessed reduction in cellular metabolic activity incubated for 24 to 72 hrs by MTT assay; assay type: toxicity, cell-based
[19] = Cytotoxicity against human HaCaT cells assessed reduction in cellular metabolic activity incubated for 72 hrs by MTT assay; assay type: toxicity, cell-based
SCC-15 [20] = assay: Induction of intracellular ROS generation in human SCC-15 cells at 0.001 to 10 uM incubated for 24 to 48 hrs by DCFH-DA staining based immunofluorescence analysis; assay type: functional, cell-based; settings: dose 0.001-10 µM, time 24-48 hrs
SCC-15 [21] = assay: Induction of intracellular ROS generation in human SCC-15 cells at 50 to 100 uM incubated for 24 hrs by DCFH-DA staining based immunofluorescence analysis; assay type: functional; settings: dose 50-100 µM
SCC-15 [22] = assay: Induction of intracellular ROS generation in human SCC-15 cells at 50 to 100 uM incubated for 48 hrs by DCFH-DA staining based immunofluorescence analysis; assay type: functional; settings: dose 50-100 µM
[23] = Upregulation of Ki67 expression in PPARgamma-silenced human SCC-15 cells at 1 uM incubated for 48 hrs Western blot analysis relative to siRNA control; assay type: functional
SCC-15 [24] = assay: Induction of intracellular ROS generation in human SCC-15 cells incubated for 24 to 48 hrs by DCFH-DA staining based immunofluorescence analysis; assay type: functional, cell-based; settings: dose 0.001-100 µM, time 24-48 hrs
SCC-15 [25] = assay: Induction of intracellular ROS generation in human SCC-15 cells at 0.001 to 100 uM by DCFH-DA staining based immunofluorescence analysis; assay type: functional, cell-based; settings: dose 0.001-100 µM, time 24-48 hrs, TDE = time-dependent effect
[26] = Upregulation of Caspase-3 activity in human SCC-15 cells at 100 uM measured after 24 hrs in presence of Ac-DEVD-AMC by fluorescence microplate reader analysis; assay type: functional
[27] = Upregulation of Caspase-3 activity in human SCC-15 cells at 100 uM measured after 48 hrs in presence of Ac-DEVD-AMC by fluorescence microplate reader analysis; assay type: functional
[28] = Downregulation of PPARgamma mRNA expression in human SCC-15 cells at 1 uM measured after 24 hrs by RT-PCR analysis (reference value: 79.68 %); assay type: functional
[29] = Downregulation of AHR mRNA expression in human SCC-15 cells at 1 uM measured after 24 hrs by RT-PCR analysis (reference value: 17.30 %); assay type: functional
[30] = Downregulation of NRFL2 mRNA expression in human SCC-15 cells at 1 uM measured after 24 hrs by RT-PCR analysis (reference value: 18.36 %); assay type: functional
[31] = Upregulation of AHR mRNA expression in PPARgamma knockdown human SCC-15 cells at 1 uM measured after 24 hrs by RT-PCR analysis; assay type: functional
[32] = Upregulation of NRFL2 mRNA expression in PPARgamma knockdown human SCC-15 cells at 1 uM measured after 24 hrs by RT-PCR analysis; assay type: functional
[33] = Downregulation of PPARgamma mRNA expression in PPARgamma-silenced human SCC-15 cells at 1 uM measured after 24 hrs by RT-PCR analysis; assay type: functional
[34] = Upregulation of AHR mRNA expression in PPARgamma-silenced human SCC-15 cells at 1 uM measured after 24 hrs by RT-PCR analysis; assay type: functional
[35] = Upregulation of AHR expression in PPARgamma-silenced human SCC-15 cells at 1 uM incubated for 48 hrs Western blot analysis relative to control; assay type: functional
[36] = Downregulation of AHR expression in PPARgamma-silenced human SCC-15 cells at 1 uM incubated for 48 hrs Western blot analysis relative to SiRNA control; assay type: functional
[37] = Upregulation of PPARgamma expression in PPARgamma-silenced human SCC-15 cells at 1 uM incubated for 48 hrs Western blot analysis relative to control; assay type: functional
[38] = Upregulation of PPARgamma expression in human SCC-15 cells at 1 uM incubated for 48 hrs Western blot analysis relative to control; assay type: functional
[39] = Upregulation of Ki67 expression in human SCC-15 cells at 1 uM incubated for 48 hrs Western blot analysis relative to control; assay type: functional
[40] = Downregulation of PCNA expression in PPARgamma-silenced human SCC-15 cells at 1 uM incubated for 48 hrs Western blot analysis relative to control; assay type: functional
[41] = Upregulation of PCNA expression in PPARgamma-silenced human SCC-15 cells at 1 uM incubated for 48 hrs Western blot analysis relative to siRNA control; assay type: functional

O=C1CC(N2C(=O)/C(=C/C(Cl)=C/c3ccc([N+](=O)[O-])cc3)SC2=S)C(=O)N1c1ccc(O)cc1 (stereo not drawn)
IC50 (Leukemic tumor cell line): 1 µM
IC50 (Breast carcinoma cell): 1 µM
IC50 [1]: 1 µM
IC50 (Colon carcinoma cell): 1 µM
IC50 (Lung cancer cell line): 1 µM
IC50 (Glioblastoma cell line): 1 µM
EC50 (SCC-15 [2]): 24.9 µM
EC50 (SCC-15 [3]): 32.8 µM
Activity (SCC-15 [4]): 16.8%
Activity (SCC-15 [5]): 106.2%
Activity (SCC-15 [6]): 115.3%
Activity (SCC-15 [7]): 150.7%
Activity (SCC-15 [8]): 90.92%
IC50 (SCC-15 [9]): 17.7 µM
IC50 (SCC-15 [10]): 6.72 µM
Activity (SCC-15 [11]): 43.58%
Activity (SCC-15 [12]): 77%
Activity (SCC-15 [13]): 79.14%
Activity (SCC-15 [14]): 69.88%
Activity (SCC-15 [15]): 82.23%
Activity (SCC-15 [16]): 83.18%
Activity (HaCaT): Non-Toxic
Activity (BALB/3T3): Non-Toxic
IC50 [17]: > 100 µM
IC50 [18]: > 100 µM
IC50 at 72 h [19]: 73.6 µM
Activity (SCC-15 [20]): inactive
Activity (SCC-15 [21]): 11.01%
Activity (SCC-15 [22]): 23.37%
Activity [23]: 41.15%
Activity (SCC-15 [24]): Dose-Dependent Effect
Activity (SCC-15 [25]): Tde
Activity [26]: 74.97%
Activity [27]: 62.85%
Activity [28]: 21.32%
Activity [29]: 34.9%
Activity [30]: 13.77%
Activity [31]: 15.99%
Activity [32]: 5.73%
Activity [33]: 60.85%
Activity [34]: 33.59%
Activity [35]: 4.74%
Activity [36]: 32.59%
Activity [37]: 19.96%
Activity [38]: 18.58%
Activity [39]: 28.61%
Activity [40]: 66.68%
Activity [41]: 23.6%
